Here are results for six compounds from patent EP1857556A1, “Genetically engineered Pseudomonas fluorescens strains as biosensor for trehalose detection and quantification in a sample” (INSTITUT NATIONAL DE LA RECHERCHE AGRONOMIQUE (INRA), priority 2006, dated 2007).

Molecules are shown by their SMILES.

The subject of series [1] is Pyt 6. Put plainly: semi-quantitative high-throughput X-Gal colorimetric trehalose assay with Pyt 6. The format is cell-based, Pseudomonas fluorescens. The note with it: semi-quantitative method; for visible induction: Pyt 6, sugars (2 %), X-Gal, 18 hours at 27°C. The method, then:
For instance, the Inventors have developed a semi-quantitative method of assaying trehalose in a sample. Said method comprises the steps consisting of: • a) contacting the sample with a suspension of Pyt 6, precultured to exponential growth, at OD 600 nm = about 0.1, with a ratio about 1:20 (preferably 10 µl of the sample, optionally diluted, are contacted with 190 µl of the Pyt 6 suspension atOD600nm=0.1); • b) adding about 2 µl X-Gal (20 mg/ml); • c) incubation the mixture during 16-20 hours, preferably18 hours, at 27°C (preferably with agitation at 150 rpm), • c) observing and/or measuring the blue coloration elicited by X-Gal processing; and • d) comparing the blue coloration observed in step c) with that elicited by a standard of trehalose contacted with a suspension of Pyt 6, precultured to exponential growth, at OD 600 nm = about 0.1, with a ratio 1:10 (preferably 10 µl of the standards are contacted with 190 µl of the Pyt 6 suspension at OD 600 nm = 0.1) and X-Gal (2 µl, 20 mg/ml); whereby if the blue coloration observed in step c) is above that of observed with the standard, then the concentration of trehalose in the sample is above trehalose concentration in the standard.
From the knowledge derived from the use of the qualitative and quantitative methods, the inventors have developed a semi-quantitative method that allows a high throughput pre-screening of the presence of trehalose in liquid samples. The invention helps also to the check quickly the quality of controls without trehalose before applying the quantitative method. The semi-quantitative method combines a direct colorimetric observation with the use of the chromogenic X-Gal and the conditions of Pyt 6 culture derived from the quantitative method. The detection limit is 0.5 mM trehalose in 10 µl of the tested liquid sample (biological or other extracts).
This method was carried out according to the following steps : • preculture of Pyt 6 to exponential growth in the BCAA medium at 27°C, • distribution of 190 µl of this Pyt 6 suspension at OD 600 nm = 0.1 in wells of a 96 well microtiter plate , • incorporation of 2 µl X-Gal (20 mg/ml) in each well, • incorporation of 10 µl of a standard range of trehalose (0.1 mM to 2 mM trehalose) or 10 µl of tested samples or 10 µl of pure water or culture medium for the blank control, • incubation during 18 hours at 150 rpm at 27°C, • comparative observation of the intensity of the blue color in wells, • the lower detection limit is 0.5 mM trehalose in the tested sample.

The test system of the next series is Pyt 5. Put plainly: visual assessment of β-galactosidase activity (blue color intensity) on X-gal buffered CAA medium, mutant Pyt 5. More on the design: β-galactosidase activities: key: -: no induction; (+): faintish induction; +: weak induction; ++: highly induction; +++: extremely strong induction. The format is cell-based, P. fluorescens ATCC 17400. The source says:
(§1) So, Pyt 6 was chosen as a good candidate to develop the biosensor test in the further study.
(§2) Table 1. Influence of added sugars in buffered (pH 7) CAA medium for the β-galactosidase activities of P. fluorescens ATCC 17400 derived mutants on visual assessment of blue color intensity

Series [2] relates to Pyt 6. Put plainly: visual assessment of β-galactosidase activity (blue color intensity) on X-gal buffered CAA medium, mutant Pyt 6. On β-galactosidase activities: key: -: no induction; (+): faintish induction; +: weak induction; ++: highly induction; +++: extremely strong induction. The format is cell-based, P. fluorescens ATCC 17400.
Excerpt: as §1, §2

Series [3] is described as follows: effect of boiling on trehalose, read out with Pyt 6 luminescence (Figure 8). It counts as physicochemical. The note with it: boiling of the samples, 5 min at 100°C (Figure 8). The protocol:
The extract derived from 1 g of Ggt mycelium cultured for 7 days were tested. For the positive control, 10 ng of purified β-gal and 1 mM trehalose solution with Pyt 6 were assessed. Results shown are mean values from 3 repeated counting. Error bars indicate standard deviations.
The fungal extraction was performed as follows. Mycelium are pre-cultured (Gaeumannomyces. graminis (Ggt): 5 days on PDA (Potato Dextrose 39 g/L, agar 20 g/L); Laccaria bicolor. (Lb) 10 days on P5 (0.25 g Di NH4 tartrate, 0.5 g KH2PO4, 0.25 g MgSO4 7 H2O, 2.5 g maltose D+, 10 g glucose D+, 0.5 ml thiamine-HCl (100 mg/L), 0.5 ml Kanieltra oligoelement solution (100 ml/L), 10 g agar, 480 ml H2O, adjusted pH to 5.5 with HCl or NaOH). Growing mycelium plugs are explanted to BCAA agar (as defined above) with cellophane membrane or the glass bead/membrane system with liquid BCAA. The cellophane membranes were previously boiled in ultra-pure water + EDTA (372 mg.l-1) during 15 minutes, washed abundantly with ultra-pure water and sterilised by autoclaving twice. […]
Boiling of the fungal extracts is expected to denature endogenous β-gal and therefore avoid interference with trehalose measurement. […] Additionally, it was observed that when Ggt mycelium extract (diluted to 1/10) was boiled, no endogenous β-galactosidase activity was ever detected (Figure 8).

As for `OC[C@H]1O[C@H](O[C@H]2[C@H](O)[C@@H](O)C(O)O[C@@H]2CO)[C@H](O)[C@@H](O)[C@@H]1O` (mixture of isomers) [maltose], in the series on Pyt 6 [1], the visible induction entry is recorded as “no visible induction”. Besides, the β-galactosidase activities result with Pyt 5 (Pyt 5, 0.2 % maltose added to buffered (pH 7) CAA medium) is reported as “++”; in the series on Pyt 5 (Pyt 5, 0.5% maltose added to buffered (pH 7) CAA medium), “++”; in the series with Pyt 6 [2] (Pyt 6, 0.2 % maltose added to buffered (pH 7) CAA medium) it was “-”; in the series on Pyt 6 [2] (Pyt 6, 0.5% maltose added to buffered (pH 7) CAA medium) it was “-”. For the same compound, the treA induction result in the series on Pyt 5 (Pyt 5, visual assessment on X-gal medium) is reported as “weak induction”. Further, the treA expression entry in the series on Pyt 6 [2] (strain as received under the label Pyt 6 (storage tubes inverted)) was “triggered”.

Regarding `O=C[C@H](O)[C@@H](O)[C@@H](O)[C@H](O)CO` [galactose], the visible induction result with Pyt 6 [1] is given as “no visible induction”.

Regarding `OCC(O)CO` [glycerol], in the series with Pyt 6 [1], the visible induction entry is recorded as “no visible induction”.

Turning to `O=C(CO)[C@@H](O)[C@H](O)[C@H](O)CO` [fructose], in the series with Pyt 6 [1], the visible induction entry is “no visible induction”.

On to `OC[C@H]1O[C@H](O[C@H]2O[C@H](CO)[C@@H](O)[C@H](O)[C@H]2O)[C@H](O)[C@@H](O)[C@@H]1O` [trehalose, Trehalose], for which the stability to boiling result in series [3] is given as “not affected”. In the series on Pyt 6 [1] (trehalose in 10 µl of the tested liquid sample), this compound came in with a detection limit of 0.5 mM. For the same compound, the β-galactosidase activities result is recorded as “+++” in the series on Pyt 5 (Pyt 5, 10 mM trehalose added to buffered (pH 7) CAA medium); “+++” with Pyt 5 (Pyt 5, 10mM trehalose together with 0.2 % glucose); “+++” with Pyt 5 (Pyt 5, 10 mM trehalose together with 0.2 % maltose); “+++” in the series with Pyt 5 (Pyt 5, 10 mM trehalose together with 0.5% maltose); “+++” in the series with Pyt 5 (Pyt 5, 10 mM trehalose together with 2 % glucose); “+++” in the series on Pyt 6 [2] (Pyt 6, 10 mM trehalose added to buffered (pH 7) CAA medium). Besides, the β-galactosidase activities entry in the series on Pyt 6 [2] (Pyt 6, 10mM trehalose together with 0.2 % glucose) is listed as “+++”; in the series on Pyt 6 [2] (Pyt 6, 10 mM trehalose together with 0.2 % maltose), “+++”; in the series with Pyt 6 [2] (Pyt 6, 10 mM trehalose together with 0.5% maltose) it was “+++”; with Pyt 6 [2] (Pyt 6, 10 mM trehalose together with 2 % glucose) it was “+++”. In addition, the treA expression entry with Pyt 5 (strain as received under the label Pyt 5 (storage tubes inverted)) is reported as “specifically induced”. The treA induction result in the series on Pyt 6 [2] (Pyt 6, trehalose 10^-3 M, visual assessment on X-gal medium) was “treA induction”.

Turning to `O=C[C@@H](O)[C@H](O)[C@H](O)CO` [arabinose], in the series on Pyt 6 [1], the visible induction result is on record as “no visible induction”.
